In patent publication US8362065B2, “Carbazole carboxamide compounds useful as kinase inhibitors” (Bristol-Myers Squibb Company, priority 2008, dated 2013):

Target: T1, human recombinant Btk (Homo sapiens, UniProt Q06187)
T1 construct: purchased Invitrogen Corporation
Test: Human Recombinant Btk Enzyme Assay
Type: biochemical
Conditions: human recombinant Btk 1 nM, ATP 20 μM, 60 min at room temperature; read-out: IC50 for Inhibition of Btk

T1 sequence (Q06187 whole entry): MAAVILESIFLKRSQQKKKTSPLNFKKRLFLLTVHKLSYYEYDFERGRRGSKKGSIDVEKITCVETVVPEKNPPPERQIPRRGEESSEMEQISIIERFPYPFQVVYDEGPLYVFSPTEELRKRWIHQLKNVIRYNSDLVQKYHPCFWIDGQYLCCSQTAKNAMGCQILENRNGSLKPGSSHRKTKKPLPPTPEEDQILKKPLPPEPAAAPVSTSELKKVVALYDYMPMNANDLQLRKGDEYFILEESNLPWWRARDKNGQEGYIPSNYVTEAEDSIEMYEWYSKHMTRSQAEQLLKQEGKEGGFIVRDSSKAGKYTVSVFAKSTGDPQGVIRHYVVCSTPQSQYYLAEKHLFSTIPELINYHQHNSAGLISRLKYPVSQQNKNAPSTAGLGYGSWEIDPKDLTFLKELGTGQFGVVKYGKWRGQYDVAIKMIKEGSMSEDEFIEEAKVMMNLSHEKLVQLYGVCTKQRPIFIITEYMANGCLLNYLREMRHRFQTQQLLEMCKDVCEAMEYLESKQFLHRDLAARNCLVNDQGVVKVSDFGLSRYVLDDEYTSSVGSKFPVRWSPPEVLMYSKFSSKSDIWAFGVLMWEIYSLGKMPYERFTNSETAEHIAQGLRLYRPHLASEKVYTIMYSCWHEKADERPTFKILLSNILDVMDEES

Row | Molecule | IC50 [nM]
1 | 7-(1,2-dihydroxyethyl)-4-(2-methyl-3-(6-methyl-1-oxoisoindolin-2-yl)phenyl)-9H-carbazole-1-carboxamide^[b] [Example 70-12] | 1.3
2 | Cc1c(NC(=O)c2ccc(F)cc2)cccc1-c1ccc(C(N)=O)c2[nH]c3cc(C(O)CO)ccc3c12 (racemic) [Example 70-2] | 2.2
3 | Cc1c(-c2ccc(C(N)=O)c3[nH]c4cc(C(O)CO)ccc4c23)cccc1N1Cc2ccccc2C1=O (racemic) [Example 70-3, 7-((RS)-1,2-dihydroxyethyl)-4-(2-methyl-3-(1-oxoisoindolin-2-yl)phenyl)-9H-carbazole-1-carboxamide] | 2.3
4 | Cc1ccc2c(c1)C(=O)N(c1cccc(-c3ccc(C(N)=O)c4[nH]c5cc(C(O)CO)ccc5c34)c1C)C2 (racemic) [Example 70-5, 7-((RS)-1,2-dihydroxyethyl)-4-(2-methyl-3-(6-methyl-1-oxoisoindolin-2-yl)phenyl)-9H-carbazole-1-carboxamide] | 1.6
5 | Cc1c(-c2ccc(C(N)=O)c3[nH]c4cc(C(O)CO)ccc4c23)cccc1N1Cc2ccc(F)cc2C1=O (racemic) [Example 70-6, 7-((RS)-1,2-dihydroxyethyl)-4-(3-(6-fluoro-1-oxoisoindolin-2-yl)-2-methylphenyl)-9H-carbazole-1-carboxamide] | 0.8
6 | Cc1c(-c2ccc(C(N)=O)c3[nH]c4cc(C(=O)N5CCN(C)CC5)ccc4c23)cccc1N(C(C)C)S(C)(=O)=O (single isomer, unassigned) [Example 10-2, 4-(3-(N-isopropylmethylsulfonamido)-2-methylphenyl)-7-(4-methylpiperazine-1-carbonyl)-9H-carbazole-1-carboxamide] | 4500
7 | Cc1c(-c2ccc(C(N)=O)c3[nH]c4cc(C(=O)N5CCN(C)CC5)ccc4c23)cccc1N(C(C)C)S(C)(=O)=O (single isomer, unassigned) [Example 10-3, 4-(3-(N-isopropylmethylsulfonamido)-2-methylphenyl)-7-(4-methylpiperazine-1-carbonyl)-9H-carbazole-1-carboxamide] | 4900
8 | CN1CCN(C(=O)C2CCc3c([nH]c4c(C(N)=O)ccc(Br)c34)C2)CC1 (stereo not shown) [Example 1-3, 5-bromo-2-(4-methylpiperazine-1-carbonyl)-2,3,4,9-tetrahydro-1H-carbazole-8-carboxamide] | 490
9 | CN1CCN(C(=O)c2ccc3c(c2)[nH]c2c(C(N)=O)ccc(-c4nccc5ccccc45)c23)CC1 [Example 2-2, 4-(isoquinolin-1-yl)-7-(4-methylpiperazine-1-carbonyl)-9H-carbazole-1-carboxamide] | 1300
10 | CN1CCN(C(=O)c2ccc3c(c2)[nH]c2c(C(N)=O)ccc(-c4cc(F)ccc4F)c23)CC1 [Example 2-12, 4-(2,5-difluorophenyl)-7-(4-methylpiperazine-1-carbonyl)-9H-carbazole-1-carboxamide] | 16
11 | CN1CCN(C(=O)c2ccc3c(c2)[nH]c2c(C(N)=O)ccc(-c4cc(Cl)ccc4F)c23)CC1 [Example 2-13, 4-(5-chloro-2-fluorophenyl)-7-(4-methylpiperazine-1-carbonyl)-9H-carbazole-1-carboxamide] | 15
12 | NC(=O)c1ccc(-c2cc(C(=O)O)ccc2F)c2c1[nH]c1cc(C(=O)N3CCOCC3)ccc12 [Example 2-16, 3-(1-carbamoyl-7-(morpholine-4-carbonyl)-9H-carbazol-4-yl)-4-fluorobenzoic acid] | 16
13 | CN1CCN(C(=O)c2ccc3[nH]c4c(C(N)=O)ccc(-c5ccccc5F)c4c3c2)CC1 [Example 2-18, 4-(2-fluorophenyl)-6-(4-methylpiperazine-1-carbonyl)-9H-carbazole-1-carboxamide] | 16
14 | CCNC(=O)c1cc2c(-c3ccc(C(N)=O)c4[nH]c5cc(C(=O)N6CCN(C)CC6)ccc5c34)cccc2[nH]1 [Example 2-24, 4-(2-(ethylcarbamoyl)-1H-indol-4-yl)-7-(4-methylpiperazine-1-carbonyl)-9H-carbazole-1-carboxamide] | 800
15 | CN1CCN(C(=O)c2ccc3c(c2)[nH]c2c(C(N)=O)ccc(-c4cccc5[nH]c(C(=O)Nc6ccc(F)cc6)cc45)c23)CC1 [Example 2-25, 4-(2-(4-fluorophenylcarbamoyl)-1H-indol-4-yl)-7-(4-methylpiperazine-1-carbonyl)-9H-carbazole-1-carboxamide] | 3100
16 | CC(=O)Nc1ccc(F)c(-c2ccc(C(N)=O)c3[nH]c4cc(C(=O)N5CCN(C)CC5)ccc4c23)c1 [Example 2-35, 4-(5-acetamido-2-fluorophenyl)-7-(4-methylpiperazine-1-carbonyl)-9H-carbazole-1-carboxamide] | 16

Row | Molecule | IC50 [nM]
17 | CN1CCN(C(=O)c2ccc3c(c2)[nH]c2c(C(N)=O)ccc(-c4cc(NC(=O)c5ccc(F)cc5)ccn4)c23)CC1 [Example 2-43, 4-(4-(4-fluorobenzamido)pyridin-2-yl)-7-(4-methylpiperazine-1-carbonyl)-9H-carbazole-1-carboxamide] | 520
18 | NC(=O)c1ccc(-c2ccccc2F)c2c1[nH]c1cc(C(=O)N3CCOCC3)ccc12 [Example 3-9, 4-(2-fluorophenyl)-7-(morpholine-4-carbonyl)-9H-carbazole-1-carboxamide] | 17
19 | CCOc1ccc2ccccc2c1-c1ccc(C(N)=O)c2[nH]c3cc(C(=O)N4CCN(C)CC4)ccc3c12 [Example 3-18] | 2700
20 | CN1CCN(C(=O)c2ccc3c(c2)[nH]c2c(C(N)=O)ccc(-c4cccc5cccnc45)c23)CC1 [Example 3-19] | 1800
21 | CCOc1ccc(F)c(-c2ccc(C(N)=O)c3[nH]c4cc(C(=O)N5CCN(C)CC5)ccc4c23)c1 [Example 3-39] | 16
22 | CN1CCN(C(=O)c2ccc3c(c2)[nH]c2c(C(N)=O)ccc(-c4ccccc4)c23)CC1 [Example 3-45] | 16
23 | CN1CCN(C(=O)c2ccc3c(c2)[nH]c2c(C(N)=O)ccc(-c4cccc(-c5ccccc5)c4)c23)CC1 [Example 3-48] | 390
24 | CN1CCN(C(=O)c2ccc3c(c2)[nH]c2c(C(N)=O)ccc(-c4cccc5c4oc4ccccc45)c23)CC1 [Example 3-49] | 690
25 | CN1CCN(C(=O)c2ccc3c(c2)[nH]c2c(C(N)=O)ccc(-c4ccccc4Cl)c23)CC1 [Example 3-69] | 15
26 | CN1CCN(C(=O)c2ccc3c(c2)[nH]c2c(C(N)=O)ccc(-c4cccc5[nH]c(C(=O)N6CCCC6)cc45)c23)CC1 [Example 3-75] | 920
27 | CN1CCN(C(=O)c2ccc3c(c2)[nH]c2c(C(N)=O)ccc(-c4c[nH]c5cc(-c6ccc(F)cc6)ccc45)c23)CC1 [Example 3-83] | 940
28 | Cc1c(-c2ccc(C(N)=O)c3[nH]c4c(c23)CCC(C(=O)NCCCN(C)C)C4)cccc1N1Cc2ccccc2C1=O (stereo not shown) [Example 3-101] | 18
29 | CC(C)(C)OC(=O)n1cc(-c2ccc(C(N)=O)c3[nH]c4c(c23)CCC(C(=O)NC2CCOCC2)C4)cn1 (stereo not shown) [Example 3-116] | 1600
30 | Cc1c(-c2ccc(C(N)=O)c3[nH]c4c(c23)CCC(C(=O)N2CCN(C)CC2)C4)cccc1N1Cc2ccccc2C1=O (stereo not shown) [Example 3-122] | 18
31 | Cc1c(-c2ccc(C(N)=O)c3[nH]c4c(c23)CCC(C(=O)N(C)C2CCN(C)CC2)C4)cccc1N1Cc2ccc(C(F)(F)F)cc2C1=O (stereo not shown) [Example 3-130] | 2
